| melting point [°C] | SMILES |
| --- | --- |
| 187 to 189 | COc1cc2c(cc1C#N)C1(CO2)C(=O)N(Cc2ccccn2)c2ccccc21 (configuration not stated) |
| 224 to 226 | Oc1ccc(-c2nc3cc(O)c(Br)cc3o2)cc1F |
| 147 to 148 | Cc1oc2c(OC(C)C(N)=NO)cccc2c1C (configuration not stated) |
| 130 to 131 | CCCOc1ccccc1-c1nc2cc3c(cc2c(=O)[nH]1)NCN3Cc1ccc(OC)cc1 |
| 127 to 129 | COC(=O)c1ccc(OC)c2oc(C)cc12 |
| 211 to 212 | CNC(=O)N1CCC(=NO)c2cc(Cl)ccc21 |
| 129 to 131 | O=C1c2ccccc2C(=O)N1COc1ccncc1 |
| 123 | Brc1ccc2c(c1)COC(N[C@@H]1CCc3ccccc31)=N2 |
| 99 | S=S1N=C2SCSC2=N1 |
| 149 | CCOC(=O)c1nccc2c(C)c3c(cc12)c1cc(OC)ccc1n3CC |
| 124 to 125 | CCOC(=O)c1cccc(-c2ccc(Cl)c3cc(Cc4ccc(F)c(F)c4)sc23)c1 |
| > 250 | Cc1nnc(-c2nsc3ccc([N+](=O)[O-])cc23)o1 |
| 138 to 140 | CC(C)(C)OC(=O)N1CCNC(=O)C1Sc1ccccc1 (configuration not stated) |
| 150 to 153 | O=C1CCN(C(=O)Cl)c2cc(Cl)ccc21 |
| 208 to 209 | COc1ccc2c(c1OC)CCCC(C(=O)O)=C2 |
| 178 to 180 | C#Cc1ccnc(-c2ccc(-c3cc(C#C)ccn3)c([N+](=O)[O-])c2)c1 |
| 95 | CC(C)n1c(=O)n(CC2CNCCO2)c2ccccc21 (configuration not stated) |
| 169 to 170 | CC(C)(C)C(=O)c1cnn2c1NCCC2 |
| 161 to 162 | ON1C(c2ccccc2)CC2(CC1c1ccccc1)OCCO2 (configuration not stated) |
| 160 to 161 | CSc1ccc(Cc2sc(NC(C)=O)nc2CCc2ccc(NC(=N)N)cc2)cc1 |
| 58 to 60 | CC(=O)c1cccc(-c2ccc(OC[C@H](O)CCc3cccnc3)cc2)c1 |
| 128 to 131 | CCOC(=O)c1ncn(-c2nccs2)c1Cl |
| 159 | CC(C)(C)c1cc(CN)cc(C(C)(C)C)c1O |
| 151 to 153 | COc1ccccc1C=C1N=C(C)OC1=O |
| 121 to 123 | CC(=O)NCCc1ccc(CN2CCN(c3ccc(F)cc3)CC2)cc1 |
| 84 to 88 | Nc1c(Br)cc(Br)cc1S(=O)(=O)C(F)F |

| melting point [°C] | SMILES |
| --- | --- |
| 91 | O=C(O)CCCCCCCCCCc1ccc(Br)cc1 |
| 78 to 79 | O=C(O)CCCCCCOc1ccc(-c2ccccc2)cc1 |
| 138 to 140 | CC(Oc1ccc(Oc2ccc(C(F)(F)F)cc2)cc1)C(=O)O (configuration not stated) |
| 170 to 171 | CCCCCS(=O)(=O)NC(=O)/C=C/c1c(C)cc(C)n1Cc1ccc(Cl)cc1Cl |
| 167 to 169 | CN(C)C=C(C#N)C(=O)Nc1ccccc1-n1cccc1 |
| 147 to 149 | C[C@H]1NC(=O)[C@H]1N(NC(=O)OC(C)(C)C)C(=O)OC(C)(C)C |
| 144 | Cc1c(C=O)nc(-c2ccc(C(F)(F)F)cc2)n1C |
| 199 to 200 | NS(=O)(=O)c1cc(C(=O)O)cc(OCc2ccccc2)c1-c1ccccc1 |
| 178 to 181 | CS(=O)(=O)Cc1ccc2oc([N+](=O)[O-])c(-c3ccccc3)c2c1 |
| 188 to 190 | O=C1c2cc(O)ccc2OCC1Cc1c[nH]c2ccccc12 (configuration not stated) |
| 138 to 140 | CCCCn1c(=O)c2c(ncn2S(=O)(=O)c2cc(C)c(Cl)cc2C)n(CCCC)c1=O |
| 173 to 174 | CSCCS(=O)(=O)NCCCc1ccc(-c2ccc(=O)[nH]n2)cc1 |
| 95.6 | CCOC(=O)c1ccc(N)cc1C(=O)OCC |
| 223 to 224 | O=C(Nc1cccc2cc(CBr)cnc12)c1c(Cl)cccc1Cl |
| 114 to 115 | NCc1ccc2[nH]ccc2c1 |
| 75 to 76 | CCCCCCCCCCCCCCCCCCN(CCCCCCCCCCCCCCCCCC)c1ccc(C=Cc2ccc(S(C)(=O)=O)cc2)cc1 |
| 195 to 200 | Cc1c(C(=O)Nc2ccc(N3CCC(N4CCOCC4)CC3)c([N+](=O)[O-])c2)cnn1-c1ccc(Cl)cc1 |
| 214 to 215 | Nc1nc(-c2ccccc2)c(-c2ccnc(Nc3cccc(CO)c3)n2)s1 |
| 147 to 165 | CC(COc1ccc(O)c(C(N)=O)c1)NCC(O)c1ccccn1 (configuration not stated) |
| 222 to 225 | Nc1n[nH]c2cc(Br)ccc12 |
| > 250 | NC(c1ccccc1CNc1ccnc2cc(Cl)ccc12)c1ccnc2cc(Cl)ccc12 (configuration not stated) |
| 146 to 147 | CCCN1CCc2c(cccc2NC(=O)c2ccc(OC)c(OC)c2)C1 |
| 59 to 63 | COCCCn1nnnc1-c1cc(-c2cccc(C(=O)O)c2)c(OCc2ccccc2)cc1OCc1ccccc1 |
| 181 to 183 | O=[N+]([O-])c1ccccc1COc1ccc2ncc3c(c2c1)C(O)CCC3 (configuration not stated) |
| 102 to 104 | CCC(=O)NCCC1CCc2ccc3c(c21)OCO3 (configuration not stated) |
| 145 to 158 | CN1CCCCC1=NC(=O)Nc1ccccc1 |

| melting point [°C] | SMILES |
| --- | --- |
| 149 | O=C(c1nnn(Cc2cc(C(F)(F)F)cc(C(F)(F)F)c2)c1-n1ccnc1)c1c(CO)noc1-c1ccccc1Cl |
| 137 to 138 | CC(=O)ON(C)C(=O)C(C)Nc1c([N+](=O)[O-])cc(C)cc1[N+](=O)[O-] (configuration not stated) |
| 170 to 172 | CN(C)Cc1nc(N)nc(N)c1-c1ccc(Cl)cc1Cl |
| 78 to 79 | CCCc1cc(C(=O)OCC)ccc1O |
| 280 to 290 | Nc1cc(-c2cccnc2)c[nH]c1=O |
| 99 to 101 | CC(/C=C/C(=O)OC(C)(C)C)=C\c1ccc(N)cc1 |
| 127 to 130 | COCC1CCCN1S(=O)(=O)c1cc2c(cc1Cl)N1CCCN=C1C2=O (configuration not stated) |
| 87 to 92 | CCC1(CCO)C(=O)N2CC=CC(C(=O)OC)N2C1=O (configuration not stated) |
| 122 | CCOC(=O)CN(Cc1ccccc1)C(=O)Cn1c2cccc(OCc3ccccc3)c2c2c(COC)c(C(=O)OC(C)C)ncc21 |
| 129 to 131 | COc1ccc(N(CCC(=O)N(C)CC(=O)O)C(=O)c2ccc(Cl)cc2)cc1 |
| 93 to 102 | O=C1CCSc2c1ccc(Cl)c2Cl |
| 208 to 209 | Cc1nc(-c2ccc(Br)cc2)n(-c2ccc(S(C)(=O)=O)cc2)n1 |
| 135 to 136 | CS(=O)c1c(Br)nn(-c2c(Cl)cc(C(F)(F)F)cc2Cl)c1N (configuration not stated) |
| 169 to 170 | CCOC(=O)c1cn2c(cc(Cl)c3ccccc32)n1 |
| 161 to 164 | Cc1c(-c2ccc(Cl)cc2)n(Cc2ccc(OCCN3CCCCC3)cc2)c2ccc(O)cc12 |
| 103 to 104 | C=CCNC(=O)ON=C1SCC(=O)N1CC |
| 157 to 158 | Cc1cccc(-c2csc(N3CCN(C(=O)Nc4cccnc4)CC3)n2)c1 |
| 140 to 145 | C=CCOC(=O)c1ccc(C(=O)NCc2ccc3c(c2CO)C(C)(C)CCC3(C)C)cc1 |
| 188 to 191 | O=C1NC(=O)C(Cc2ccc(OCC34CC5CC(CC(C5)C3)C4)cc2)S1 (configuration not stated) |
| 309 to 310 | Cn1cnc(S(=O)(=O)O)c1Cl |
| 207 | CC(C)(C)OC(=O)NCc1cc(C(=O)O)ccn1 |
| 198 to 200 | Cc1nc2cc(OCc3ccccc3)c(OCc3ccccc3)cc2nc1C(=O)O |
| 215 to 217 | Cc1c(-c2ccccc2)c(N2CC[C@H](N(C)C)C2)c2oc(N3CCOCC3)nc2c1C#N |
| 101 | CP(C)(=O)c1ccc(C(=O)O)cc1 |
| 172 to 174 | CC(=O)C1CCC2C3CCC4CC(O)C(N5CC(C)OC(C)C5)CC4(C)C3C(=O)CC12C (configuration not stated) |
| 174 | COc1ccc(OCC(O)CN2CCC(Nc3nc4ccccc4n3Cc3ccc(F)cc3)CC2)cc1 (configuration not stated) |

| melting point [°C] | SMILES |
| --- | --- |
| 137 to 138 | CCCN(CCC)[C@H]1Cc2c[nH]c3ccc(C(=O)NN)c(c23)C1 |
| 184 to 185 | Nc1nc(/C(=N/OC2(C(=O)OCc3ccc([N+](=O)[O-])cc3)CCCCC2)C(=O)O)cs1 |
| 202 to 204 | CCN1C(=O)CC(C)(C)c2ccc(C(=O)O)cc21 |
| 135 to 136 | O=C(O)c1cccc(-c2cccc(OCCc3cccc(C(F)(F)F)c3)n2)c1 |
| 144 to 146 | CNC(=C[N+](=O)[O-])NOCCCc1csc(NC(=N)N)n1 |
| 83 to 85.5 | O=C1C(CCO)Oc2ccccc2N1Cc1ccccc1 (configuration not stated) |
| 75 to 76 | CCOC(=O)COc1cc2cc(CC(C)C)sc2c(Cl)c1Cl |
| 220 to 221 | O=c1c2ccc3c(c2oc2cccc(F)c12)CC(CO)O3 (configuration not stated) |
| 168 to 169 | O=C(NCCO)c1ccnc(-c2cccc3cc(Cc4cccc(C(F)(F)F)c4)sc23)c1 |
| 98 | CCOc1ccc2[nH]c(=O)n(-c3ccc(OC)cc3)c2c1 |
| 287 to 289 | Cc1cc(NC2CCCCC2)c2[nH]ncc2n1 |
| 145 | OC(CN1CCC(c2c[nH]c3ccccc23)CC1)C1COc2ccccc2O1 (configuration not stated) |
| 134 to 135 | N#Cc1cc(Cn2cncn2)cc(-c2ccc(F)cc2)c1 |
| 206 to 216 | Cc1c(Cl)cc(C(=O)C=CC(=O)O)cc1Cl |
| > 260 | COc1cc(OC)c(-c2nccs2)cc1/C=C/C(=O)c1ccc(C(=O)O)cc1 |
| 165 to 166 | C=C(C)C(=O)NC(=O)Nc1ccccc1 |
| 275 to 278 | O=C(O)c1c[nH]c2cc(C3CC3)nn2c1=O |
| 122 to 123 | O=C(O)Cc1ccccc1OCCCCc1cc(-c2ccc(C(F)(F)F)cc2)no1 |
| 163 to 164 | COC(=O)C1=C(O)c2sc3ccccc3c2S(=O)(=O)N1Cc1ccc(OC)cc1 |
| 130 | CC1(C)COC(=S)N(Cc2ccccc2NS(=O)(=O)C(F)(F)F)C1 |
| 172 | O=C1N[C@H](CCl)[C@@H]1N1C(=O)c2ccccc2C1=O (relative stereo) |
| 29 to 31 | Cc1ccc(C(=O)c2ccc(F)cc2C)c(F)c1 |
| 125 to 126 | NNC(=O)CCc1csc(NC(N)=NCC(F)(F)F)n1 |
| 194 to 195 | COc1ccc2c(n1)NC(C)(C)C(=O)N2 |

| SMILES | melting point [°C] |
| --- | --- |
| CCCN1CCCC1Cc1cccc(NC(N)=O)c1 (configuration not stated) | 101 to 104 |
| Clc1ccc(C(C2=NCCN2)c2nccs2)cc1 (configuration not stated) | 145 to 147 |
| O=[N+]([O-])c1cc(F)ccc1N1CCNCC1 | 85 to 87 |
| CN(C)C1(Cc2ccccc2)CC=C(c2c[nH]c3ncccc23)CC1 (configuration not stated) | 222 to 225 |
| C=C(c1ccc(C(=O)OC)cc1)N1CC1C(N)=O (configuration not stated) | 149 to 150 |

From a melting point compilation (Tetko et al.; mined from patent text by program, amines drawn as free bases though some values may be those of a salt)
